Holding throughout (experiment): NCI tumour cell line growth inhibition, 48 h
In assay [1] the test system is SK-OV-3 ovarian.
For assay [2], the system named is HCT-116 colon.
Assay [3] has as its system ACHN renal.
Assay [4] has as its system HT29 colon.
Assay [5] relates to NCI-H226 lung.
Assay [6] deals with SNB-19 CNS.
For assay [7], the system named is MDA-N.
Assay [8] deals with COLO 205 colon.
Assay [9] relates to MCF7 breast.
Assay [10] has as its system SK-MEL-28 melanoma.
Assay [11] has as its system RPMI-8226 leukemia.

SMILES strings stand for the structures. Values joined by “and” are separate entries in the source; they are usually repeats but may differ in a detail not shown here. Equal entries are not always repeated.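 Assay format: 96-well plates, 48-hour exposure. GI50 = concentration required for 50% inhibition of growth. TGI: concentration producing complete growth inhibition.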 Where a SMILES comes first, the peptide text is derived from it. The star is where a group is joined. Cbz = O=C(OCc1ccccc1)*; OBn = c1ccc(CO*)cc1 Some results are limits rather than exact numbers.

On to `COc1cc(CC2c3cc(OC)c(OC)cc3CCN2C)c(Oc2cc3c(cc2OC)-c2c(O)c(OC)cc4c2C(C3)N(C)CC4)cc1OC` (centres undefined), for which the TGI in assay [1] is above 100 µM; in [2] it was above 100 µM; in assay [3], 49.8 µM; in [4], 36.6 µM; in assay [5], 66.2 µM; in assay [6], 57.4 µM. In addition, the TGI in [7] amounted to 36.8 µM; in assay [8] it was 42.5 µM; in assay [9], 29.1 µM; in assay [10] it was 63.2 µM.
For the molecule `N#Cc1c(N2CCCC2)ncn(Cc2ccccc2)c1=O`, the TGI in assay [1], in assay [2], in [3], in assay [4], in assay [5] and in [6] was above 100 µM each time. For the same molecule, the TGI in assay [7], in assay [8], in [10] and in assay [11] was above 100 µM each time.
Consider `O=C(NC1CCN(Cc2ccccc2)CC1)c1cc2nc(-c3ccc(Cl)s3)cc(C(F)(F)F)n2n1`, for which the GI50 in [1] was 61.6 µM; in [2], 4.84 µM; in assay [4], 3.14 µM; in [5] it was above 100 µM; in assay [6], above 100 µM; in [9], 8.98 µM. Moreover, the TGI in [1], in [2], in assay [4], in [5], in assay [6] and in assay [9] was above 100 µM each time.
For the molecule `CCCNC(C#N)c1ccc(C(C#N)NCCC)cc1` (centres undefined), the TGI in assay [1], in assay [2], in assay [3], in assay [4], in assay [5] and in assay [6] was above 100 µM in each case. Further, the TGI in assay [7], in assay [8] and in [10] was above 100 µM in each case.
On to `CC(=O)OC(OC(C)=O)n1cc(C=O)c2ccccc21`, for which the TGI in assay [1], in assay [2], in [3], in assay [4], in [5] and in [6] was above 100 µM in each case. Also, the TGI in assay [8], in [9], in assay [10] and in assay [11] was above 100 µM in each case.
Turning to `O=C1NC2(CCCCC2)C2CCCCCC12` (centres undefined), the TGI in [1], in assay [2], in assay [3], in assay [4], in assay [5] and in assay [6] was above 100 µM each time. In addition, the TGI in assay [10] is above 100 µM.
`c1ccc2c(c1)nc(NC1CCCC1)c1[nH]c(C3CCCC3)nc12`: the TGI is above 62.5 µM in assay [1]; 17.6 µM in assay [2]; above 75.6 µM in assay [3]; 20.1 µM in [4]; 45.1 µM in [5]; above 100 µM in [6]. For the same molecule, the TGI in assay [8] is 36.5 µM; in [10] it was 28.3 µM; in [11], above 67.9 µM.
Take `COC(=O)C(Cc1ccc(O)cc1)NC(=O)C(CC(=O)OCc1ccccc1)NC(=O)OCc1ccccc1` (centres undefined) (Cbz-Asp(OBn)-Tyr-OMe; configuration not given here): the TGI in assay [2] was determined as 35.1 µM; in assay [3], 34.8 µM; in [4], 32.2 µM; in assay [5], 43.2 µM; in assay [6], 34.1 µM; in assay [7], 35.7 µM. The values for the TGI in assay [8], in [10] and in assay [11] were 39.4 µM, 31.3 µM and 49.8 µM, respectively.
`Oc1ccc(SCc2cc(O)c(O)c(O)c2)cc1`: the TGI in assay [1] is above 100 µM; in assay [2], 34.2 µM; in [3], above 100 µM; in assay [4] it was 48.1 µM; in assay [5], 52.1 µM; in assay [6], above 100 µM. Moreover, the TGI is 36.9 µM in assay [8], 38.4 µM in assay [9], above 100 µM in assay [10] and 78.6 µM in assay [11].
In the case of `Cc1ccc(C(C2C(=O)N(C)C(=O)N(C)C2=O)C(F)(F)C(=O)N(C)C)cc1` (centres undefined), the TGI in [1], in assay [2], in assay [3], in assay [5], in [6] and in assay [8] was above 100 µM throughout. Also, the TGI in assay [9], in assay [10] and in assay [11] was above 100 µM in each case.
Take `NC(=O)C#CC(N)=O`: the TGI was 231 µM and 214 µM and > 100 µM in assay [1]; 29.5 µM and > 100 µM in assay [2]; above 100 µM in [3]; 131 µM and 35.4 µM and > 100 µM in assay [4]; 169 µM and > 100 µM in assay [5]; 241 µM and > 100 µM in assay [6]. The TGI in assay [8] was 30.8 µM and 29.8 µM and > 100 µM; in assay [9], 48.5 µM and 56.8 µM; in assay [10] it was 20 µM and 15.6 µM and 27 µM; in [11] it was 62.1 µM. The GI50 in assay [2] is 15.1 µM and 37.5 µM; in [4] it was 31.2 µM and 17 µM; in assay [5], 73.6 µM; in assay [8], 15.4 µM and 15 µM and 73.6 µM; in [10] it was 8.21 µM and 5.85 µM.
Consider `Cc1ccc(N2CCc3c(C)c(C#N)c4nc5ccccc5n4c32)cc1`, for which the TGI in [1], in assay [2], in [3], in assay [4], in assay [5] and in assay [6] was above 100 µM throughout. The TGI in assay [8], in [9] and in assay [10] was above 100 µM each time.
On to `C=CCNC(=O)NC1=CSC2=NC(=O)C3(NN12)c1ccccc1-c1ccccc13`, for which the TGI in assay [1], in assay [2], in [3], in [4], in assay [5] and in [6] was above 10 µM throughout. Further, the TGI in assay [8], in [9], in assay [10] and in assay [11] was above 10 µM in each case.
As for `CN(C)CCSC(=Nc1ccccc1)N1CCCCC1`, the TGI in [1] was above 100 µM; in [2], 33.8 µM; in assay [3], 30.5 µM; in assay [4], 33 µM; in assay [5], 24.5 µM; in assay [6], above 100 µM. For the same molecule, the TGI was found to be 28.8 µM in assay [8], 28 µM in assay [10] and 87.4 µM in [11].
Take `O=c1[nH]c(=O)n(Cc2ccccc2CO)cc1Sc1ccccc1`: the TGI was above 100 µM in [1]; 64.7 µM in assay [2]; 96.4 µM in assay [3]; above 100 µM in assay [4]; 43.8 µM in assay [5]; above 100 µM in assay [6]. For the same molecule, the TGI in assay [8], in assay [9] and in [10] was above 100 µM in each case.
For the molecule `Cc1cc(-c2nc3ccccc3s2)ccc1NC(=O)[C@H](C)N`, the TGI in [1] turned out to be 28.5 µM; in [2], 23.4 µM; in [3], 27.5 µM; in [4] it was 28.7 µM; in assay [5], 13.4 µM; in [6], 28.7 µM. Besides, the TGI came out at 24.1 µM in [7], 26.7 µM in [8], 20.4 µM in assay [9] and 29.3 µM in [10].
As for `CSC1=C(C#N)C(=O)N(c2ccc(C)cc2)C(=S)C1C#N` (centres undefined), the TGI in assay [1], in [2], in [3], in assay [4], in [5] and in assay [6] was above 100 µM throughout. Moreover, the TGI in assay [7], in assay [8], in assay [9] and in assay [10] was above 100 µM each time.
Turning to `C=C(CC[C@@H](C(=O)O)[C@H]1[C@H](O)C[C@@]2(C)C3=CC[C@@H](C(=C)C)[C@](C)(CCC(=O)O)C3=CC[C@]12C)C(C)C`, the TGI in assay [1] is 31.9 µM; in [2] it was 30.7 µM; in assay [3] it was 31.4 µM; in assay [4], 32.8 µM; in assay [5], 36.3 µM; in assay [6], 32.9 µM. Besides, the TGI stood at 32 µM in assay [7], 44.3 µM in assay [8], 32.6 µM in assay [9] and 40 µM in assay [10].
As for `OC1(c2cc3ccccc3s2)CCCCC1`, the TGI in assay [1] is above 100 µM; in assay [2], above 100 µM; in assay [3] it was above 100 µM; in assay [4], 54.5 µM; in assay [5], above 100 µM; in [6], above 100 µM. Also, the TGI was above 100 µM in assay [7], 41.8 µM in assay [8], above 100 µM in assay [9] and above 100 µM in assay [10].
In the case of `Cc1cccc(NC(=O)C(=O)C(C(=O)c2ccccc2F)C2OC(=O)c3ccccc32)c1Cl` (centres undefined), the TGI is above 100 µM in assay [1]; 45.3 µM in [2]; above 100 µM in [3]; above 100 µM in assay [4]; 62.3 µM in assay [5]; above 100 µM in [6]. Moreover, the results for the TGI in assay [8], in assay [10] and in assay [11] were 38.1 µM, above 100 µM and above 100 µM, respectively.
Consider `COC(=O)/C=C/c1cc(O)c2c(c1)[C@H](C(=O)OC)[C@@H](c1ccc(O)c(O)c1)O2`, for which the TGI was above 79.8 µM in [1]; above 72 µM in assay [2]; above 85.2 µM in [3]; above 37.9 µM in [4]; above 22.7 µM in assay [5]; 61.6 µM in assay [8]. In addition, the values for the TGI in assay [9], in assay [10] and in [11] were above 100 µM, above 71 µM and above 41 µM, respectively.
Regarding `C1CCC(OC2CSC2)OC1` (centres undefined), the TGI in assay [1], in assay [2], in [3], in assay [4], in assay [5] and in assay [6] was above 100 µM each time. Further, the TGI in assay [7], in assay [8], in assay [9] and in [10] was above 100 µM throughout.
For the molecule `c1ccc2c(c1)CCc1cc3cc4c(nc3nc1-2)-c1ccccc1CC4`, the TGI in assay [1], in [2], in assay [3], in assay [5], in assay [6] and in [8] was above 100 µM throughout. The TGI in [10] and in [11] was above 100 µM in each case.
In the case of `N#C[S-].[Nd+3].c1ccc(-c2ccccn2)nc1.c1ccc(-c2ccccn2)nc1.c1ccc(-c2ccccn2)nc1`, the GI50 is 6.93 µM in assay [1]; 8.4 µM in assay [2]; 4.83 µM in assay [4]; 2.89 µM in assay [5]; 10.7 µM in assay [6]; 18.6 µM in assay [8]. For the same molecule, in assay [10], the GI50 was 13.7 µM. Moreover, the TGI is above 100 µM in assay [1]; above 100 µM in assay [2]; above 100 µM in [4]; 7.52 µM in assay [5]; above 100 µM in assay [6]; above 100 µM in [8]. In addition, the TGI in assay [10] was above 100 µM.
`O=[Se](=O)c1ccccc1.O=[Se](=O)c1ccccc1.[Cu]`: the GI50 in [1] was 27.3 µM; in assay [2], 17.4 µM; in assay [4] it was 17.2 µM; in [5], 21.7 µM; in assay [6], 17.4 µM; in [8] it was 18.5 µM. Also, the GI50 was 24.1 µM in assay [9], 16.6 µM in assay [10] and 17 µM in assay [11]. For the same molecule, the TGI was determined as 42.1 µM in assay [1]; 33 µM in [2]; 39.2 µM in [4]; 39.6 µM in assay [5]; 31.3 µM in assay [6]; 35.4 µM in assay [8]. Also, the TGI in assay [9] was determined as 62 µM; in assay [10], 30.7 µM; in [11], 63.1 µM.
Turning to `COc1cccc(/C=N/[N-]C(N)=O)c1[O-].[Ni+2].[OH3+].c1cnc2c(c1)ccc1cccnc12`, the TGI in assay [1], in [2], in assay [3], in assay [4], in assay [5] and in assay [6] was above 100 µM in each case. The TGI in assay [8], in assay [10] and in [11] was above 100 µM each time.

The values above are taken from PubChem BioAssay (NCI).
